51 compounds from patent publication EP2698367A1, “Benzimidazoles for the treatment of cancer” (Max-Planck-Gesellschaft zur Förderung der Wissenschaften …, priority 2012, dated 2014) can be followed below.

The structures appear in SMILES notation. Where only a bound is given, the exact number is not on record here.

The target in one test is PDEδ farnesyl pocket (Homo sapiens, UniProt O43924). As to the kind of experiment: Displacement titrations of labeled probe (fluorescence polarization) for the determination of KD values. It is filed as binding.
PDEδ farnesyl pocket, sequence (O43924 whole entry): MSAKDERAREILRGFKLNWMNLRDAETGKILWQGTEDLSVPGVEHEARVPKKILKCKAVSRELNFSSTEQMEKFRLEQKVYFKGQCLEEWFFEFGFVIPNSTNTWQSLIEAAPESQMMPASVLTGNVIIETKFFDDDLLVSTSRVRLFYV
Conditions: not given
An excerpt:
The resulting solution was serially diluted, holding the concentrations of S54, PDEδ and DMSO constant. The sealed plates were shaken overnight at room temperature and centrifuged at the beginning of the next day. […] For the fitting of the data to a competition model the exact mathematical solution derived from the law of mass action was used as described by Roehrl et al.^3 Fraction bound data was fit using KD2 as the only fitting parameter and total ligand concentration as independent variable (OriginPro8.6, function codec from origin). [formula] • FSB: Fraction bound of fluorescent probe • KD1: Binding constant of fluorescent Probe determined from direct titration • KD2: Fitting parameter (Binding constant of unlabeld competitor) • LST: Total concentration of unlabeld small molecule competitor • RT: Total protein concentration
For the fitting of data to a competition model with cooperative binding of two benzimidazole fragments the program Scientist 3.0 was used. An experimental system was defined as a series of partial equations including the equilibrium relationships between the various species. Anisotropy data was converted to fraction bound and fitting was carried out in anlogy to a previously described set of equilibrium relationships by Goody and coworkers.^4. KD1 = ([A][PDEDf])/([APDED]) [formula] KD2 = ([L^2][PDEDf])/([LPDED]) [formula] • A:equilibrium conentration of free fluorophore • L: equilibrium concentration of free ligand • APDED: equilibrium concentration of bound fluorescent probe • LPDED: equilibrium conentration of bound small molecule • PDEDf: equilibrium conentration of free protein This model was used (together with equations describing the mass balance) to numerically simulate the FSB of fluorophore and compared with the experimental data.
Scientist input file: • // Micromath Scientist Model File • IndVars: LST • DepVars: A,L,APDED,LPDED,PDEDf,FSB • Params: ATOT,PDED,KD1,KD2 • LPDED= L^2*PDEDf/KD2 • APDED=A*PDEDf/KD1 • ATOT=A+APDED • LST=L+LPDED • PDED=PDEDf+APDED+LPDED • 0<A<ATOT • 0<L<LST • 0<PDEDf<PDED • FSB=1-A/ATOT • LST=0
The activity of the compounds was classified according to their Kd for the PDEδ farnesyl pocket into the following ranges: […]
For orientation: Fluorescence polarisation rises when a labelled molecule tumbles more slowly, as on binding a larger partner.
In general, Kd refers to a measure of binding affinity in units of concentration. Compound `Oc1ccc(Cn2c(-c3ccc(O)cc3)nc3ccccc32)cc1` [Compound 15] gave a Kd of 25 to 100 nM.

Regarding `COc1ccc(Cc2nc3ccccc3n2Cc2ccccc2)cc1` [Compound 27], the Kd lay in the range of 100 to 1000 nM.

The compound `CC(C)CCn1c(CC(C)(C)C)nc2ccccc21` [Compound 35] came in with a Kd of 100 to 1000 nM.

The compound `c1ccc(Cn2c(CN3CCCCCC3)nc3ccccc32)cc1` [Compound 40] yielded a Kd of 100 to 1000 nM.

Still in this test, the particulars now being: Kd for the PDEδ farnesyl pocket; read-out: KD.
`c1ccc(C2Nc3ccccc3-c3nc4ccccc4n32)nc1` (stereo not drawn) [Compound 02, 6-Pyiridyl-5,6-dihydrobenzo[4-5]imidazo[1,2-c]quinazoline]: the Kd was above 1000 nM.

Take `c1ccc(Cn2c(-c3ccc(OCCn4c(-c5ccccc5)nc5ccccc54)cc3)nc3ccccc32)cc1` [Compound 06, 1-Benzyl-2-(4-(2-(2-phenyl-1H-benzo[d]imidazol-1-yl)ethoxy)phenyl)-1H-benzo[d]imidazole]: the Kd was 100 to 1000 nM.

As to `CC(C)(C)OC(=O)N1CCC(C(COc2ccc(-c3nc4ccccc4n3Cc3ccccc3)cc2)n2c(-c3ccccc3)nc3ccccc32)CC1` (stereo not drawn) [Compound 08, tert-Butyl-4-(2-(4-(1-benzyl-1H-benzo[d]imidazol-2-yl)phenoxy)-1-(2-phenyl-1H-benzo[d]imidazol-1-yl)ethyl)piperidine-1-carboxylate], the Kd is above 1000 nM.

As to `COc1ccccc1OCc1nc2ccccc2n1Cc1ccccc1Cl` [Compound 13], the Kd was 100 to 1000 nM.

For `C=C(C)Cn1c(-c2ccc(N(C)C)cc2)nc2ccccc21` [Compound 14], the Kd was 100 to 1000 nM.

Regarding `Cc1ccc(OCc2nc3ccccc3n2C(C)c2ccccc2)cc1` (stereo not drawn) [Compound 16], the Kd was 100 to 1000 nM.

As for `O=C(NCCN1CCCC1)C1CCN(c2nc3ccccc3n2Cc2ccccc2F)CC1` [Compound 17], the Kd is 100 to 1000 nM.

For the compound `COc1cccc(CNC(=O)C2CCN(c3nc4ccccc4n3Cc3ccccc3C)CC2)c1` [Compound 19], the Kd was in the range of 100 to 1000 nM.

For `CCOc1ccc(CNC(=O)C2CCN(c3nc4ccccc4n3Cc3ccc(F)cc3)CC2)cc1` [Compound 20], the Kd was 25 to 100 nM.

Turning to `CN(CCCNC(=O)C1CCN(c2nc3ccccc3n2Cc2ccc(F)cc2)CC1)C1CCCCC1` [Compound 21], the Kd is 100 to 1000 nM.

For `Cc1ccccc1Cn1c(N2CCC(C(=O)O)CC2)nc2ccccc21` [Compound 22], the Kd is above 1000 nM.

As for `CC1CCCN(C(=O)C2CCN(c3nc4ccccc4n3Cc3cccc(F)c3)CC2)C1` (stereo not drawn) [Compound 23], the Kd was above 1000 nM.

With `CCN(CCCNC(=O)C1CCN(c2nc3ccccc3n2Cc2ccc(C)cc2)CC1)c1cccc(C)c1` [Compound 24], the Kd was above 1000 nM.

`Cc1ccccc1Cn1c(N2CCC(C(=O)NCCCN3CC(C)CC(C)C3)CC2)nc2ccccc21` (stereo not drawn) [Compound 25]: the Kd lay in the range of 100 to 1000 nM.

Regarding `c1ccc(CCn2c(-c3ccco3)nc3ccccc32)cc1` [Compound 26], the Kd was in the range of 100 to 1000 nM.

For the compound `Cc1ccccc1Cn1c(Cc2ccccc2)nc2ccccc21` [Compound 28], the Kd is above 1000 nM.

Consider `CCCCc1nc2ccccc2n1Cc1ccc(Cl)cc1` [Compound 29], for which the Kd fell in the range of 100 to 1000 nM.

For the compound `CCC(CC)c1nc2ccccc2n1Cc1ccccc1` [Compound 30], the dissociation constant (Kd) is above 1000 nM.

Take `C=C(C)Cn1c(CC(C)C)nc2ccccc21` [Compound 31]: the Kd lay within 100 to 1000 nM.

Turning to `CC(C)Cc1nc2ccccc2n1Cc1ccccc1` [Compound 32], the equilibrium dissociation constant (Kd) is 100 to 1000 nM.

For the compound `CCc1nc2ccccc2n1Cc1ccccc1F` [Compound 33], the Kd fell in the range of 100 to 1000 nM.

For the compound `Cc1ccccc1Cn1c(CC(C)(C)C)nc2ccccc21` [Compound 34], the Kd was 25 to 100 nM.

For `Cc1cccc(-c2nc3ccccc3n2CCc2ccccc2)c1` [Compound 36], the Kd is above 1000 nM.

For the compound `CC(C)Cc1nc2ccccc2n1Cc1c(F)cccc1Cl` [Compound 37], the Kd was in the range of 25 to 100 nM.

In the case of `C#CCn1c(-c2ccccc2Br)nc2ccccc21` [Compound 38], the Kd was above 1000 nM.

In the case of `Clc1cccc(Cn2c(-c3ccco3)nc3ccccc32)c1` [Compound 39], the Kd was 100 to 1000 nM.

Turning to `CCCC(O)c1nc2ccccc2n1Cc1c(F)cccc1Cl` (stereo not drawn) [Compound 41], the Kd was 100 to 1000 nM.

Turning to `Cc1ccc(-c2nc3ccccc3n2Cc2ccc(F)cc2)o1` [Compound 42], the equilibrium dissociation constant (Kd) was in the range of 100 to 1000 nM.

With `Fc1ccc(Cn2c(-c3cccc(Br)c3)nc3ccccc32)cc1` [Compound 43], the Kd was above 1000 nM.

Regarding `Cc1ccc(NC(=O)N2CCN(c3nc4ccccc4n3Cc3ccccc3)CC2)c(C)c1` [Compound 44], the Kd fell in the range of 100 to 1000 nM.

In the case of `COc1cc(OC)cc(C(=O)N2CCN(c3nc4ccccc4n3Cc3ccccc3)CC2)c1` [Compound 45], the dissociation constant Kd fell in the range of 100 to 1000 nM.

Consider `O=C(c1ccccc1Cl)N1CCN(c2nc3ccccc3n2Cc2ccccc2)CC1` [Compound 46], for which the Kd lay in the range of 100 to 1000 nM.

Turning to `Cc1ccc(C)c(Cn2c(CCNC(=O)CCCC(C)O)nc3ccccc32)c1` (stereo not drawn) [Compound 47], the Kd is above 1000 nM.

Regarding `Ic1ccc(Cn2c(-c3ccc(I)o3)nc3ccccc32)o1` [Compound 48], the Kd lay within 25 to 100 nM.

Turning to `COc1cccc(C(=O)C=Cc2nc3ccccc3n2Cc2ccccc2)c1` [Compound 49], the dissociation constant (Kd) was above 1000 nM.

In the case of `COc1ccc(-c2nc3ccccc3n2Cc2c(F)cccc2Cl)cc1` [Compound 50], the Kd lay in the range of 100 to 1000 nM.

Consider `O=C(NCCO)C(c1ccccc1)n1c(-c2ccccc2)nc2ccccc21` (stereo not drawn) [Compound 51], for which the Kd is above 1000 nM.

Consider `C=CCOc1ccc(-c2nc3ccccc3n2Cc2ccccc2)cc1` [Compound S02, 2-(4-(Allyloxy)phenyl)-1-benzyl-1H-benzo[d]imidazole], for which the Kd is above 1000 nM.

Turning to `C=CCOc1ccc(-c2nc3ccccc3n2Cc2ccccn2)cc1` [Compound S03, 2-(4-(Allyloxy)phenyl)-1-(pyridin-2-ylmethyl)-1H-benzo[d]imidazole], the Kd is above 1000 nM.

As to `C=CCOc1ccc(-c2nc3ccccc3n2Cc2ccccc2C)cc1` [Compound S04, 2-(4-(Allyloxy)phenyl)-1-(2-methylbenzyl)-1H-benzo[d]imidazole], the dissociation constant Kd was above 1000 nM.

As for `C=CCOc1ccc(-c2nc3ccccc3n2Cc2ccc(F)cc2)cc1` [Compound S06, 2-(4-(Allyloxy)phenyl)-1-(4-fluorobenzyl)-1H-benzo[d]imidazole], the dissociation constant (Kd) fell in the range of 100 to 1000 nM.

As to `Oc1ccc(-c2nc3ccccc3n2Cc2ccccc2)cc1` [Compound S07, 4-(1-Benzyl-1H-benzo[d]imidazol-2-yl)phenol], the Kd lay in the range of 25 to 100 nM.

As to `Oc1ccc(-c2nc3ccccc3n2Cc2ccccn2)cc1` [Compound S08, 4-(1-(Pyridin-2-ylmethyl)-1H-benzo[d]imidazol-2-yl)phenol], the Kd was above 1000 nM.

For `Oc1ccc(-c2nc3ccccc3n2Cc2ccc(F)cc2)cc1` [Compound S09, 4-(1-(4-Fluorobenzyl)-1H-benzo[d]imidazol-2-yl)phenol], the equilibrium dissociation constant (Kd) is 100 to 1000 nM.

Consider `O=C(NCc1ccccc1)C(C1CCCCC1)n1c(-c2ccccc2)nc2ccccc21` (stereo not drawn) [Compound S12, N-Benzyl-2-cyclohexyl-2-(2-phenyl-1H-benzo[d]imidazol-1-yl)acetamide], for which the Kd lay in the range of 100 to 1000 nM.

For the compound `OCC(C1CCCCC1)n1c(-c2ccccc2)nc2ccccc21` (stereo not drawn) [Compound S16, 2-Cyclohexyl-2-(2-phenyl-1H-benzo[d]imidazol-1-yl)ethanol], the Kd is above 1000 nM.

The test is the same for the next values; noted with them: read-out: KD.
Take `O=C(NCCCN1CCN(c2ccc(O)cc2)CC1)C1CCN(c2nc3ccccc3n2Cc2cccc(F)c2)CC1` [Compound 18]: the Kd lay in the range of 100 to 1000 nM.
